Test results: the NIST ThermoML archive (doi:10.1016/j.jct.2009.12.002)
Values joined by “and” are separate entries in the source; they are usually repeats but may differ in a detail not shown here. Equal values may be shown once.

Conditions: Liquid; for mass density: 101.33 kPa, Pycnometric method; for speed of sound: Pulse-echo method

CC(C)CCCCCCCOC(=O)c1ccccc1C(=O)OCCCCCCCC(C)C
Conditions | mass density
273.84 K | 980.22 kg/m3
274.06 K | 980.07 kg/m3
274.07 K | 980.08 kg/m3
274.35 K | 979.86 kg/m3
282.95 K | 973.75 kg/m3
298.25 K | 962.88 kg/m3
298.28 K | 962.83 kg/m3
305.26 K | 957.83 kg/m3
313.27 K | 952.21 kg/m3 and 952.15 kg/m3
333.28 K | 937.93 kg/m3
353.29 K | 923.76 kg/m3
373.29 K | 909.62 kg/m3
393.31 K | 895.47 kg/m3
413.33 K | 881.29 kg/m3

Conditions | speed of sound [m/s]
293.06 K, 1185 kPa | 1436.6
298.08 K, 1100 kPa | 1419.9
298.08 K, 5400 kPa | 1439
298.08 K, 10180 kPa | 1459.7
298.08 K, 16980 kPa | 1488
298.08 K, 25560 kPa | 1522
298.08 K, 32760 kPa | 1549.3
298.08 K, 40150 kPa | 1576.5
298.08 K, 47800 kPa | 1602.9
298.08 K, 55510 kPa | 1629.7
298.08 K, 62350 kPa | 1652.4
313.18 K, 1050 kPa | 1367.8
313.18 K, 1110 kPa | 1367.9
313.18 K, 15410 kPa | 1432.5
313.18 K, 29860 kPa | 1491.8
313.18 K, 44860 kPa | 1548.5
313.18 K, 60370 kPa | 1602.9
313.18 K, 75510 kPa | 1652.4
313.18 K, 89970 kPa | 1697
313.18 K, 105660 kPa | 1742.8
313.18 K, 119950 kPa | 1782.4
333.24 K, 1100 kPa | 1304.1
333.24 K, 1130 kPa | 1304.1
333.24 K, 14910 kPa | 1370.1
333.24 K, 29760 kPa | 1434.3
333.24 K, 45000 kPa | 1494.4
333.24 K, 60580 kPa | 1551.1
333.24 K, 75550 kPa | 1601.7
333.24 K, 90480 kPa | 1649.2
333.24 K, 105430 kPa | 1694
333.24 K, 120280 kPa | 1736.3
333.24 K, 139660 kPa | 1788.5
353.18 K, 1010 kPa | 1241.9
353.18 K, 1280 kPa | 1243.1
353.18 K, 10060 kPa | 1288.5
353.18 K, 19830 kPa | 1335.3
353.18 K, 29890 kPa | 1380.3
353.18 K, 40170 kPa | 1423.1
353.18 K, 50230 kPa | 1462.7
353.18 K, 60350 kPa | 1500.4
353.18 K, 70310 kPa | 1535.6
353.18 K, 80170 kPa | 1569
353.18 K, 90020 kPa | 1601
353.18 K, 104640 kPa | 1646
353.18 K, 122120 kPa | 1697.1
353.18 K, 139450 kPa | 1745
373.1 K, 460 kPa | 1179.1
373.1 K, 1150 kPa | 1183.1
373.1 K, 1350 kPa | 1184.4
373.1 K, 10370 kPa | 1233.7
373.1 K, 20030 kPa | 1282.4
373.1 K, 29930 kPa | 1328.6
373.1 K, 40300 kPa | 1373.8
373.1 K, 50050 kPa | 1413.5
373.1 K, 60040 kPa | 1452
373.1 K, 70060 kPa | 1488.7
373.1 K, 80050 kPa | 1523.7
373.1 K, 90060 kPa | 1557.2
373.1 K, 100440 kPa | 1590.2
373.1 K, 110260 kPa | 1620.7
373.1 K, 120180 kPa | 1649.7
373.1 K, 130570 kPa | 1679.6
373.1 K, 140300 kPa | 1707
393.54 K, 1240 kPa | 1125.2
393.54 K, 1280 kPa | 1125.4
393.54 K, 14940 kPa | 1203.3
393.54 K, 29730 kPa | 1277.1
393.54 K, 44510 kPa | 1343.3
393.54 K, 59690 kPa | 1404.8
393.54 K, 75010 kPa | 1462
393.54 K, 104930 kPa | 1563
393.54 K, 122450 kPa | 1616.7
393.54 K, 139770 kPa | 1666.6
413.41 K, 1110 kPa | 1069.6
413.41 K, 1130 kPa | 1069.8
413.41 K, 14800 kPa | 1152.3
413.41 K, 29640 kPa | 1229.8
413.41 K, 45070 kPa | 1301.7
413.41 K, 60270 kPa | 1365.4
413.41 K, 75540 kPa | 1423.9
413.41 K, 90150 kPa | 1476
413.41 K, 105150 kPa | 1526
413.41 K, 119720 kPa | 1571.9
413.41 K, 139510 kPa | 1630.3
